Entries after “also recorded” stand apart in the source; their conditions may differ.
Columns and labels:
CD11c+ DCs = experiment: DC maturation of murine BMDCs, CD86 expression by FACS; type: cell-based, mouse
Procedure: BMDCs were prepared as described and CD11c^+ DCs were purified at day 6 and replated at 5×10^5 cells/ml.
CD11c^+ DCs after different stimuli were subject to FACS analysis.
SB 216763 was purchased from Tocris Cookson Inc. (Ellisville, Mo.). […] Flow Cytometry Assays Cells were stained for 30 min on ice with primary antibody and if necessary secondary antibody, washed, and then evaluated on a FACSCalibur™ (Becton Dickinson). […] Cell Culture and purification of DC, OT-I and OT-II T cells Mouse DM-derived CD11c^+ DCs were isolated using anti-CD11c-conjugated beads and columns (Miltenyi Biotech) according to the manufacturer's protocol. The resulted CD11c^+ DCs were then resuspended in the same culture media at 5-10×10^5 cells/ml; these cells were in single cell suspension and thus referred as cluster-disrupted cells.

GSK3β = GSK3β (Homo sapiens, UniProt P49841); settings: cited from earlier work
β-catenin [1] = experiment: Cytosolic β-catenin accumulation in murine DCs (cell fractionation, Western blot); type: cell-based; settings: murine immature DCs, different doses
Procedure: BMDCs were treated with either LPS or different doses of SB216763. CD11c^+ DCs were then fractionated into membrane and cytosolic fractions, followed by immunoblotting with antibodies against β-catenin (top) and E-cadherin (middle). Akt was probed as a loading control (bottom).
SB 216763 was purchased from Tocris Cookson Inc. (Ellisville, Mo.). […] Cell Culture and purification of DC, OT-I and OT-II T cells Mouse DM-derived CD11c^+ DCs were isolated using anti-CD11c-conjugated beads and columns (Miltenyi Biotech) according to the manufacturer's protocol. The resulted CD11c^+ DCs were then resuspended in the same culture media at 5-10×10^5 cells/ml; these cells were in single cell suspension and thus referred as cluster-disrupted cells. […] Cell fractionation, Immunoprecipitation and Western blotting Cells were homogenized in hypotonic buffer (10 mM HEPES-KOH pH 7.4, 1.5 mM MgCl2, 10 mM KCl, 0.5 mM DTT) with proteinase and phosphatase inhibitors by passing through 30 gauge needles for 10 times. Postnuclear fractions were centrifuged at 45,000 rpm for 45 min to separate membrane and cytosol fractions. Total cell lysates were obtained with 1% NP-40 lysis buffer (1% Nonidet P-40, 150 mM NaCl, 20 mM Tris, and ImM EDTA (pH 7.5)) supplemented with proteinase and phosphatase inhibitors.

β-catenin [2] = experiment: Cytosolic β-catenin accumulation in human DCs (cell fractionation, Western blot); type: cell-based; settings: human DCs (not shown)
DCs [3] = experiment: Cytokine and chemokine production by treated DCs; type: cell-based
Text: The ability of the GSK3β inhibitor SB216763 to induce maturation was particularly striking. While it is possible this effect was limited to the dramatic increase in free β-catenin, GSK3β also has other targets. For example, by inhibiting GSK3β-mediated phosphorylation of NF-AT, this transcriptional activator would be more readily translocated into the nucleus, possibly synergyzing with β-catenin (Crabtree and Olson, 2002). Other potential mediators (eg Hedgehog, p53, c-myc) might also be affected (Doble and Woodgett, 2003). […] Cytokine and chemokine multiplex analysis The levels of cytokines and chemokines were measured with Luminex suspension array technology. Supernatants were collected and frozen at −80° C. For human CD34^+-derived DCs, cell culture supernatants were then analyzed using the Beadlyte cytokine assay kit (Upstate) with manufacturer's protocol. For mouse cytokines, supernatants were analyzed using the Bio-Plex cytokine assay kit and supporting reagents (BioRad) following manufacturer's procedures.

DCs [4] = experiment: MHC class II redistribution in DCs by immunofluorescence; type: cell-based; settings: immunofluorescence (not shown)
active β-catenin = experiment: Active β-catenin by sequential immunoprecipitation and immunoblotting in BMDCs; type: cell-based; settings: bone marrow-derived DC cultures
Text: Bone marrow-derived DC cultures were either treated with LPS, SB216763 or cluster disruption (CD). CD11c^+ cells were purified and same number of cells were used to make cell lysates as described. Cell lysates were then subject to sequential immunoprecipitation with antibodies against E-cadherin and β-catenin, followed by immunoblotting with antibodies against E-cadherin (top), active β-catenin (middle) and total β-catenin (bottom).
BMDCs were either treated with LPS or CD and cell lysates from CD11c^+ DCs were subject to sequential immunoprecipitation with antibodies against E-cadherin and β-catenin, followed by immunoblotting with antibodies against E-cadherin (top), active β-catenin (middle) and total β-catenin (bottom).
Reagents and Antibodies Rat anti-E-cadherin, mouse anti-β-catenin, mouse anti-p120 catenin were purchased from BD Transduction Laboratories (Lexington, Calif.). Both mouse anti-E-cadherin (HECD-1 and SHE78-7) and rat anti-E-cadherin (ECCD-1 and 2) monoclonal antibodies were obtained from Zymed (San Francisco, Calif.). Rat monoclonal anti-E-cadherin and rabbit polyclonal β-catenin were obtained from Sigma-Aldrich. […] Flow Cytometry Assays Cells were stained for 30 min on ice with primary antibody and if necessary secondary antibody, washed, and then evaluated on a FACSCalibur™ (Becton Dickinson). […]

GSK3β, sequence (P49841 whole entry, species assumed): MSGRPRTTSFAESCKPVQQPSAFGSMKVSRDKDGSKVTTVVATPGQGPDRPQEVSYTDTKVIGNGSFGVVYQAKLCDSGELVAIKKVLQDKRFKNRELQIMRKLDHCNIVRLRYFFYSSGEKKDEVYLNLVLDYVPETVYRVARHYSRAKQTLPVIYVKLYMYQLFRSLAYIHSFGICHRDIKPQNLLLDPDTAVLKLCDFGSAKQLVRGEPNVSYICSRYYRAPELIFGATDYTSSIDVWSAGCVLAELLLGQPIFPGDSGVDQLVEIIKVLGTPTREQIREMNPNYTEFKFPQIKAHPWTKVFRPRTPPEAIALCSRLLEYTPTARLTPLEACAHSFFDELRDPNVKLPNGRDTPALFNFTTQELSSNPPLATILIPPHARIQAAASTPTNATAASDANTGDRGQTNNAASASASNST

## Cn1cc(C2=C(c3ccc(Cl)cc3Cl)C(=O)NC2=O)c2ccccc21 [SB216763]
CD11c+ DCs; 10 μM
  effectiveness at triggering DC maturation compared with LPS and cluster disruption (CD): nearly as effective as LPS at triggering DC maturation, and slightly more effective than CD
CD11c+ DCs; added to immature DCs, different doses
  mature population (percentage of cells expressing high CD86): increased in a dose-dependent manner; also recorded: results in DC maturation
GSK3β
  selectivity as GSK3β inhibitor: selective inhibitor of GSK3β
β-catenin [1]
  accumulation of β-catenin in the cytosol: dose-dependent accumulation of β-catenin in the cytosol; also recorded: Dose-dependent accumulation of cytosolic β-catenin
β-catenin [2]
  accumulation of β-catenin in the cytosol: dose-dependent accumulation of β-catenin in the cytosol
DCs [3]
  production of inflammatory cytokines: failed to induce the production of inflammatory cytokines
DCs [3]; compared with cluster disruption
  formation of chemokines (eg IP10, MCP-1, MIP-α, CXCL8): induced the formation of the same array of chemokines as did CD
DCs [4]
  mature DC phenotype, MHC class II distribution: MHC class II molecules redistributing from lysosomes to the plasma membrane
Active β-catenin
  activation of β-catenin (active, non-phosphorylated β-catenin): Resulted in Activation of β-Catenin
